Results reported in patent publication US20220033784A1 (priority 2020, published 2022).
Residue numbers refer to the chain shown, from its start. Names may count otherwise. Where two headings read alike, the source gives them in different places.

T1: human IL-2 receptor beta (IL-2Rβ, CD122), purified soluble (human, UniProt P14784 27-240)
T1 construct: also called hILR2β (CD122); human IL-2Rβ
T1 sequence (looked up): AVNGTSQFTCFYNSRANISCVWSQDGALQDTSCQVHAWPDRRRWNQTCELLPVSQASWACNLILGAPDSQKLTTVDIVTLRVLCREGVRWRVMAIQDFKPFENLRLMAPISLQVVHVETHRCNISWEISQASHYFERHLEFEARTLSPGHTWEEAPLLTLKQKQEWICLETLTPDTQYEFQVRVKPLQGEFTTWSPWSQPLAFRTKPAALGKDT

T2: human intermediate-affinity IL-2 receptor complex, IL-2 CD122/CD132 (β/γ), on cells (human, UniProt P14784 27-551; P31785 23-369)
T2 sequence (looked up) 1: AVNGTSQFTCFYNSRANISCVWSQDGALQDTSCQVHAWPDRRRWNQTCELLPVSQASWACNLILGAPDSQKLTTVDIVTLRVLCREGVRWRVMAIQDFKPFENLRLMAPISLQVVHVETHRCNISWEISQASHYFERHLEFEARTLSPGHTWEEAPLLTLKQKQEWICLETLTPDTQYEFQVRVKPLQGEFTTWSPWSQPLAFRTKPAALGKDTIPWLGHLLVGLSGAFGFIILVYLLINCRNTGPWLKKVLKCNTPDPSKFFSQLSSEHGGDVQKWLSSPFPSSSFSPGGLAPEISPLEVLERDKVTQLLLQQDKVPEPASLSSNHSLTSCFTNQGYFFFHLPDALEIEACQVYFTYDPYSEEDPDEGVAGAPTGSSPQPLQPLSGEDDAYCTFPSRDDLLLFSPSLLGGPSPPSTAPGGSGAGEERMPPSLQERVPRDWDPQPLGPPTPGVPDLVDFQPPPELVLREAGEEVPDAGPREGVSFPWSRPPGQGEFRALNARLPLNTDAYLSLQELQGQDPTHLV
T2 sequence (looked up) 2: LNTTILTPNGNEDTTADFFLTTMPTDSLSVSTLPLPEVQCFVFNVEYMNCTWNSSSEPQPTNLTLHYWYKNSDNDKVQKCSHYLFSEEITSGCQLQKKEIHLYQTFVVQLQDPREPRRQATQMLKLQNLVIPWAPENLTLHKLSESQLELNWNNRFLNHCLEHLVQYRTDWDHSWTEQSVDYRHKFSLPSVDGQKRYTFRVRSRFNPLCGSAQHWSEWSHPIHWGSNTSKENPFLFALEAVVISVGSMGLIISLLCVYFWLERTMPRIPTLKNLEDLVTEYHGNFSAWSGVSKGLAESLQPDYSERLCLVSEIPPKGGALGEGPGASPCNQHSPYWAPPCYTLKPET

T3: human high-affinity IL-2 receptor complex, IL-2 CD25/CD122/CD132 (α/β/γ), on cells (human, UniProt P01589 22-272; P14784 27-551; P31785 23-369)
T3 sequence (looked up) 1: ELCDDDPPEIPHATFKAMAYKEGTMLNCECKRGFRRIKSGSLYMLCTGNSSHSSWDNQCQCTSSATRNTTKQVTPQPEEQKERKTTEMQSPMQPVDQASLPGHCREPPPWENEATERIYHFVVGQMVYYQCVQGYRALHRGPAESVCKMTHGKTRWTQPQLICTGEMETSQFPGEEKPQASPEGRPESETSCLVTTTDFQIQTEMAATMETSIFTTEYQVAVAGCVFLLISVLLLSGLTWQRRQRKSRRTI
T3 sequence (looked up) 2: T2 sequence (looked up) 1
T3 sequence (looked up) 3: T2 sequence (looked up) 2

B1: Fc-IL2-K43N:Y45T-E62N:K64T (protein)
chain: APTSSSTKKTQLQLEHLLLDLQMILNGINNYKNPKLTRMLTFNFTMPKKATELKHLQCLEENLTPLEEVLNLAQSKNFHLRPRDLISNINVIVLELKGSETTFMCEYADETATIVEFLNRWITFCQSIISTLT
B2: Fc-IL2-R38N:L40T-K43N:Y45T (Fc fusion)
chain: GGGGSGGGGSAPTSSSTKKTQLQLEHLLLDLQMILNGINNYKNPKLTNMTTFNFTMPKKATELKHLQCLEEELKPLEEVLNLAQSKNFHLRPRDLISNINVIVLELKGSETTFMCEYADETATIVEFLNRWITFCQSIISTLT
B3: Fc-IL2-K43N:Y45T-E62N:K64T (Fc fusion)
chain: B2 chain with N48R, T50L, E72N, K74T
B4: Fc-IL2-R38N:L40T-E62N:K64T (Fc fusion)
chain: B2 chain with N53K, T55Y, E72N, K74T
B5: Fc-IL2-K43N:Y45T-L72N:Q74T (Fc fusion)
chain: B2 chain with N48R, T50L, L82N, Q84T
B6: Fc-IL2-R38N:L40T-L72N:Q74T (Fc fusion)
chain: B2 chain with N53K, T55Y, L82N, Q84T

What was measured:
[1] = test system: CD8 T cells; test: pSTAT5 flow cytometry in hPBMCs: CD8 T cells; assay type: cell-based, human; details: for Selectivity CD8/Treg: larger numbers = greater selectivity for CD8 T cells over Treg cells; for EC50: pSTAT5 MFI in hPBMCs, 20 minutes at 37° C., read-out: EC50 CD8 T cell
Procedure: (§1) In this experiment, the ability of the IL-2 variants to activate CD8 T cells, NK cells, and Treg cells was measured by monitoring relative changes in pSTAT5 in response to treatment of the cells with the IL-2 variants. The IL-2 variants tested in this experiment were each fused to a human IgG Fc domain as described in Example 15. […]; Blood from healthy volunteers was taken and hPBMCs were isolated using a ficoll-paque (GE Healthcare) gradient, washed with PBS to remove platelets, and cleared of red blood cells using ACK lysis buffer (Gibco). Cells were then plated at 1*10e6 cells/well in 90 uL serum-free RPMI 1640 media (Gibco) and allowed to rest for 2-4 hours at 37° C. After resting, cells were treated the IL-2 molecules listed above (10 uL), at the indicated concentrations for 20 minutes at 37° C., and 25 uL 20% PFA was immediately added with gentle pipetting. Cells were then pelleted by centrifugation and aspirated (400 RCF, 7 minutes).
(§2) Phosflow Perm Buffer III (BD Biosciences) was added (200 uL), and the cells were mixed gently by pipetting up and down once to prevent clumping. Cells were then washed twice with 200 uL FACS buffer followed by pelleting by centrifugation (400 RCF, 7 minutes). Cells were in resuspended in 200 uL FACS buffer and incubated with the antibodies in Table D and Table E per standard procedure then suspended in 200 uL FACS buffer for FACS analysis. Data was analyzed using FlowJo v10 software.

[2] = test system: HH cells (IL-2 CD122/CD132 (β/γ) receptor complex); test: pSTAT5 ELISA in HH cells; assay type: cell-based; details: for Selectivity HH/iTreg: higher value = greater selectivity for HH cells; for EC50: pSTAT5 level 50% of maximum, InstantOne ELISA, read-out: EC50 HH T cell
Procedure: (§3) The ability of the IL-2 variants to activate HH cells and iTregs was measured by monitoring relative changes in phosphorylated STAT5 (pSTAT5) in response to treatment of the cells with the IL-2 variants. pSTAT5 is known to be a downstream consequence of IL-2 signaling. HH T cells (ATCC CRL-2105) are a line of T cells that lack the alpha chain of the IL-2 receptor complex, but that contain the beta and gamma chains of the IL-2 receptor complex. iTreg cells were prepared from Fresh Leuko Paks obtained from […] Technologies (CAT #70500.1, Donor #D001003551).
(§4) For IL-2 activation, the HH cells and iTreg cells were plated at 2*10e6 cells/well in 50 ul serum-free RPMI 1640 media (Gibco), and allowed to rest at 37° C. After resting, cells were treated the IL-2 molecules listed above, and cells were then pelleted by centrifugation.
(§5) Following treatment with the IL-2 molecules, cell induction status was evaluated by the InstantOne ELISA pSTAT5 detection kit (Invitrogen).

[3] = test system: NK cells; test: pSTAT5 flow cytometry in hPBMCs: NK cells; assay type: cell-based, human; details: for Selectivity NK/Treg: larger numbers = greater selectivity for NK cells over Treg cells; for EC50: pSTAT5 MFI in hPBMCs, 20 minutes at 37° C., read-out: EC50 NK cell
Procedure: as §1, §2

[4] = test system: Treg cells; test: pSTAT5 flow cytometry in hPBMCs: Treg cells; assay type: cell-based, human; details: pSTAT5 MFI in hPBMCs, 20 minutes at 37° C.; read-out: EC50 Treg cell
Procedure: as §1, §2

[5] = test system: iTreg cells (IL-2 CD25/CD122/CD132 (α/β/γ) receptor complex); test: pSTAT5 ELISA in iTreg cells; assay type: cell-based; details: pSTAT5 level 50% of maximum, InstantOne ELISA; read-out: EC50 iTreg cell
Procedure: as §3, §4, §5

[6] = target: T1, human IL-2 receptor beta (IL-2Rβ, …); test: SPR (Biacore 8K, 25 C), CD122 amine-coupled on CM5 chip, Fc-IL2 variant as analyte, 1:1 Langmuir fit
[7] = target: T2, human intermediate-affinity IL-2 …; test: cell-based or functional assay
[8] = target: T3, human high-affinity IL-2 receptor …; test: cell-based or functional assay
[9] = target: T2, human intermediate-affinity IL-2 …; test: cell-based or functional assay; remark: listed apart in the source
[10] = target: T3, human high-affinity IL-2 receptor …; test: cell-based or functional assay; remark: listed apart in the source
[11] = target: T2, human intermediate-affinity IL-2 …; test: cell-based or functional assay; remark: listed apart in the source

| Molecule | Selectivity CD8/Treg [1] | EC50 [1] [nM] | Selectivity HH/iTreg [2] | EC50 [2] [nM] | Selectivity NK/Treg [3] | EC50 [3] [nM] | EC50 [4] [nM] | EC50 [5] [nM] | other results |
| --- | --- | --- | --- | --- | --- | --- | --- | --- | --- |
| Fc-IL2-T41N:K43T | 0.07 | 31.2 | 2.69 × 10^−4 | 37.2 | 0.7 | 3.05 | 2.13 | 0.01 | – |
| Fc-IL2-E62N:K64T | 0.09 | 25.5 | 3.84 × 10^−4 | 52.1 | 0.62 | 3.65 | 2.26 | 0.02 | – |
| Fc-IL2-L72N:Q74T | 0.1 | 22.1 | 8.4 × 10^−4 | 47.6 | 0.98 | 2.33 | 2.29 | 0.04 | – |
| Fc-IL2-R38N:L40T | 0.3 | 26.5 | 6.75 × 10^−4 | 163 | 2.58 | 3.06 | 7.89 | 0.11 | – |
| Fc-IL2-K35N | 0.00284 | 24.6 | – | – | 0.0276 | 2.54 | 0.07 | – | – |
| B1 | – | – | 4.64 × 10^−2 | 66.2 | – | – | – | 3.07 | relative selectivity for HH cells vs iTreg cells among the tested molecules ([2]; Table C): greatest relative selectivity |
| B2 | – | – | – | – | – | – | – | – | Kd [6]: 3540 nM; koff [6]: 0.292 s⁻¹; kon [6]: 82600 M⁻¹ s⁻¹; EC50 (read off the curve), pSTAT5 MFI in NK cells of hPBMC [7]: ~8 nM; EC50, pSTAT5 induction in iTreg cells (ELISA) [8]: 14.1 nM; EC50, pSTAT5 induction in HH T cells (ELISA) [9]: 218 nM; EC50 (read off the curve), pSTAT5 MFI in Treg cells of hPBMC [10]: ~20 nM; EC50 (read off the curve), pSTAT5 MFI in NK cells of hPBMC [11]: ~8 nM |
| B3 | – | – | – | – | – | – | – | – | EC50, pSTAT5 induction in iTreg cells (ELISA) [8]: 3.07 nM; EC50, pSTAT5 induction in HH T cells (ELISA) [9]: 66.2 nM; EC50 (read off the curve), pSTAT5 MFI in NK cells of hPBMC [11]: ~6 nM |
| B4 | – | – | – | – | – | – | – | – | EC50 (read off the curve), pSTAT5 MFI in NK cells of hPBMC [7]: ~6 nM; EC50 (read off the curve), pSTAT5 MFI in Treg cells of hPBMC [10]: ~20 nM |
| B5 | – | – | – | – | – | – | – | – | Kd [6]: 2620 nM; koff [6]: 0.235 s⁻¹; kon [6]: 89900 M⁻¹ s⁻¹; EC50, pSTAT5 induction in iTreg cells (ELISA) [8]: 4.49 nM; EC50, pSTAT5 induction in HH T cells (ELISA) [9]: 65.2 nM; EC50 (read off the curve), pSTAT5 MFI in NK cells of hPBMC [11]: ~6 nM |
| B6 | – | – | – | – | – | – | – | – | EC50 (read off the curve), pSTAT5 MFI in NK cells of hPBMC [7]: ~6 nM; EC50 (read off the curve), pSTAT5 MFI in Treg cells of hPBMC [10]: ~20 nM |
